From patent publication US6156790A, “C-10 carbon-substituted artemisinin-like trioxane compounds having antimalarial, antiproliferative and antitumor activities” (priority 1997, dated 2000) come the findings set out here.

The term IC50 denotes the concentration that gives 50% inhibition. High values mean weaker potency, low ones greater potency.

Each structure is given as a SMILES string. Some results are limits rather than exact numbers.

The test system of experiment [1] is chloroquine-sensitive P. falciparum (NF54). Description: In vitro antimalarial activity ([3H]hypoxanthine incorporation). The conditions noted are these: for IC50: Plasmodium falciparum, NF54; for IC50 compared with artemisinin: in words. The format is cell-based. The protocol: Activity was determined by measuring the incorporation of [^3 H]hypoxanthine, by the methods of Desjardins and Milhouse, with the following modofications, see […].; Haynes, […]. Antimicrob. Agents Chemother., 16:710 (1979); Milhous, W. K.; Weatherly, […].; Antimicrob. Agents Chemother., 27: 525 (1985). […] Parasitemia was maintained at 0.05-3% and doubling time at approximately 15 hours by twice weekly change of medium and replenishment with fresh erythrocytes. […] Sigma-Aldrich #27,043-1). DMSO solutions were diluted 500-fold in medium, serially diluted in 0.2% DMSO in medium (to maintain constant solvent concentration), then 100 μL aliquots were pipetted into microtiter plate wells (Costar 3595). […] Plates included at least 8 wells of no drug controls (4 with and 4 without DMSO) and 4 wells of uninfected erythrocytes. […] Cells were harvested (Brandel MB-48R) onto GF-C glass filters (Brandel). The filters were washed five times with 3 mL water per sample spot, dried under a heat lamp, and counted (Beckman Model LS-6500) in scintillation cocktail (ICN Cytoscint). Decays per minute (dpm) values were downloaded and analyzed (Power MFacintosh 7200/90; Microsoft Excel 5.0), to yield the mean and standard deviation at each drug concentration.

The subject of experiment [2] is NCI-H23. The experiment in a line: NCI 60 cell line screen (SRB), non-small cell lung cancer. Format: cell-based. As to conditions: Homo sapiens, read-out: Log10 GI50 (converted).
For experiment [3], the system named is HL-60(TB). Description: cells. The conditions noted are these: Homo sapiens, HL-60, read-out: Log10 LC50 (converted).
The subject of experiment [4] is 60 cell line panel. The experiment in a line: NCI 60 cell line screen, whole panel. Format: cell-based. The conditions noted are these: panel.
Experiment [5] has as its system CAKI-1. Description: NCI 60 cell line screen (SRB), renal cancer. As to conditions: Homo sapiens.
In experiment [6] the test system is EKVX. The experiment in a line: NCI 60 cell line screen (SRB), non-small cell lung cancer. The format is cell-based. The conditions noted are these: Homo sapiens, read-out: Log10 GI50 (converted).
The subject of experiment [7] is UACC-62. Description: cells. Format: cell-based. The conditions noted are these: Homo sapiens, read-out: Log10 TGI (converted).
The subject of experiment [8] is RXF 393. The experiment in a line: cells. As to conditions: Homo sapiens.
The test system of experiment [9] is IGROVI. The experiment in a line: cells. As to conditions: 60 cell, read-out: Log10 GI50 (converted).
The test system of experiment [10] is ACHN. Description: cells. As to conditions: Homo sapiens.
The subject of experiment [11] is murine keratinocyte cell line PE. Description: growth inhibition of PE cells (MTT assay). Format: cell-based. As to conditions: 100 nanomolar. The protocol: To determine the inhibitory effect of the compositions of the present invention on cell proliferation, screening assays were performed on a murine keratinocyte cell line PE. Cell line PE was chosen for its particular sensitivity to the induction of ornithine decarboxylase (ODC) activity by the extensively characterized tumor promoter TPA. […] PE cell culture medium consisted of Eagle's minimal essential medium without calcium chloride (Whittaker Bioproducts, Walkersville, Mass.) supplemented with 8% chelexed fetal calf serum and 1% antibiotic-antimycotic (Gibco BRL) and the addition of CaCl2 to 0.05 mM Ca^++.
Growth Inhibition. Growth curves, shown in FIGS. 1 and 2, for PE cells treated with calcitriol and the C-10 carbon-substituted dimers 21, 22, 26, 27, and 28 generated by assay for the reduction of the tetrazolium-based compound MTT, see Charmichael, et al., Cancer Res., 47:936-942 (1987). […] PE cells were seeded at a density of 5,000 cells/well in 50 μL of medium into 96-well microtiter plates. Twelve hours later, the medium was removed, and cells were treated with 100 μL of fresh medium into which the appropriate amount of calcitrol or analog dissolved in dimethyl sulfoxide (DMSO) had been added, with the concentration of DMSO held constant at 0.1%. […] At 24-hour intervals following the initial treatment of the cells with compounds, 0.1 mg (50 μL of a 2 mg/mL solution) of MTT was added to each well. After 4 hours, the MTT was removed and DMSO added to dissolve the blue formazan dye. Using a microtiter plate reader, the A505 was then determined and cell number calculated from blank-subtracted absorbance values.
Background: Formazan colour is commonly taken as a measure of viable cells.

Take `COc1cc(OC)c([C@@H]2O[C@@H]3O[C@@]4(C)CC[C@H]5[C@H](C)CC[C@@H]([C@H]2C)[C@@]35OO4)c(OC)c1` [Monomer 14]: the IC50 in experiment [1] (survey data (preliminary)) was determined as 11 nM.

In [1] (survey data (preliminary)), `C[C@H]1[C@H](c2cccn2C)O[C@@H]2O[C@@]3(C)CC[C@H]4[C@H](C)CC[C@@H]1[C@@]24OO3` [Monomer 16, 10α-(N-methylpyrrol-2'-yl)deoxoartemisinin] yielded a half-inhibitory concentration (IC50) of 8.4 nM. In experiment [1], the “IC50 compared with artemisinin” value is recorded as “lower than that of artemisinin”.

Turning to `CO[C@H]1O[C@@H]2O[C@@]3(C)CC[C@H]4[C@H](C)CC[C@@H]([C@H]1C)[C@@]24OO3` [Artemether, artemether, reference compound], in experiment [1], the half-inhibitory concentration (IC50) came out at 5.4 nM and the “IC50 compared with artemisinin” value was “lower than that of artemisinin”.

`C[C@H]1[C@@H](C#Cc2ccc(Cl)cc2)O[C@@H]2O[C@@]3(C)CC[C@H]4[C@H](C)CC[C@@H]1[C@@]24OO3` [Monomer 9, 10β-(4'-Chlorophenylethynyl) deoxoartemisinin]: the IC50 in experiment [1] (survey data (preliminary)) worked out at 16 nM. This counts as double-digit nanomolar.

Molecule `COc1ccc([C@@H]2O[C@@H]3O[C@@]4(C)CC[C@H]5[C@H](C)CC[C@@H]([C@H]2C)[C@@]35OO4)c(OC)c1` [Monomer 13] came in with a concentration for half-maximal inhibition (IC50) in experiment [1] (survey data (preliminary)) of 8.9 nM. In addition, the “IC50 compared with artemisinin” value in experiment [1] is “lower than that of artemisinin”.

As for `CC(=O)O[C@H]1C(=O)[C@@]2(C)[C@H]([C@H](OC(=O)c3ccccc3)[C@]3(O)C[C@H](OC(=O)[C@H](O)[C@@H](NC(=O)c4ccccc4)c4ccccc4)C(C)=C1C3(C)C)[C@]1(OC(C)=O)CO[C@@H]1C[C@@H]2O` [Paclitaxel, paclitaxel, reference compound], the GI50 in experiment [2] is 0.0759 nM; in [4] (60 cell, read-out: Log10 GI50 Delta (converted)), 0.0708 nM; in [6], 0.214 nM; in experiment [9] it was 2.45 nM. Moreover, the CC50 in experiment [3] was > 29500 nM; in [5] (CAKI-1, read-out: Log10 LC50 (converted)), > 100000 nM; in experiment [8] (RXF 393, read-out: Log10 LC50 (converted)), > 100000 nM; in [10] (read-out: Log10 LC50 (converted)), 35500 nM. The “Log10 TGI Delta” value in experiment [4] is reported as -4.54. In experiment [4], the “Log10 TGI Range” value is 7.20. The IC (TGI) in experiment [5] (CAKI-1, read-out: Log10 TGI) is 91200 nM; in experiment [7], 19500 nM; in [8] (RXF 393, read-out: Log10 TGI), > 100000 nM; in experiment [10] (read-out: Log10 TGI), 12600 nM.

In the case of `C[C@H]1[C@@H](C#Cc2ccc(C#C[C@H]3O[C@@H]4O[C@@]5(C)CC[C@H]6[C@H](C)CC[C@@H]([C@H]3C)[C@@]46OO5)cc2)O[C@@H]2O[C@@]3(C)CC[C@H]4[C@H](C)CC[C@@H]1[C@@]24OO3` [Dimer 28], the “antiproliferative activity compared with calcitriol” value in experiment [11] is recorded as “at least as antiproliferative as calcitrol”.

For the molecule `COc1cc(OC)c([C@@H]2O[C@@H]3O[C@@]4(C)CC[C@H]5[C@H](C)CC[C@@H]([C@H]2C)[C@@]35OO4)cc1[C@@H]1O[C@@H]2O[C@@]3(C)CC[C@H]4[C@H](C)CC[C@@H]([C@H]1C)[C@@]24OO3` [Dimer 26], in experiment [11], the “antiproliferative activity compared with calcitriol” value is given as “at least as antiproliferative as calcitrol”.

As to `C[C@H]1[C@@H](C#Cc2cccc(C#C[C@H]3O[C@@H]4O[C@@]5(C)CC[C@H]6[C@H](C)CC[C@@H]([C@H]3C)[C@@]46OO5)c2)O[C@@H]2O[C@@]3(C)CC[C@H]4[C@H](C)CC[C@@H]1[C@@]24OO3` [Dimer 27], in experiment [11], the “antiproliferative activity compared with calcitriol” value is reported as “at least as antiproliferative as calcitrol”.

On to `C[C@H]1[C@H](c2ccco2)O[C@@H]2O[C@@]3(C)CC[C@H]4[C@H](C)CC[C@@H]1[C@@]24OO3` [Monomer 17], for which the IC50 in experiment [1] (survey data (preliminary)) stood at 1.5 nM. Also, the “IC50 compared with artemisinin” value in [1] is “lower than that of artemisinin”.

Molecule `COc1ccc2cc([C@@H]3O[C@@H]4O[C@@]5(C)CC[C@H]6[C@H](C)CC[C@@H]([C@H]3C)[C@@]46OO5)c(OC)cc2c1` [Monomer 15, 10α-(2',7'-dimethoxynaphth-3'-yl)deoxoartemisinin] yielded an IC50 in [1] (survey data (preliminary)) of 11 nM.
